We go through five molecules from patent US6476017B2, “Compounds activating pharmacological effect of retinoids” (Institute of Medicinal Molecular Design, Inc., priority 1995, dated 2002).

In this experiment the test system is promyelocytic leukemia cell strain HL-60. The experiment can be described thus: Cell differentiation inducing activity of retinoids on HL-60 in presence/absence of test compound (NBT reduction). The format is cell-based. As to the method: The effects of the compounds of the above Examples 1 and 2 on cell differentiation induced by retinoids were studied. As retinoid compounds (i.e., agonists against the all-trans retinoic acid receptor), retinoic acid and Am80 (4-[(5,6,7,8-tetrahydro-5,5,8,8-tetramethyl-2-naphthalenyl)carbamoyl]benzoic acid) were used. Cell differentiation inducing activities of the above retinoids on promyelocytic leukemia cell strain HL-60 were measured in the presence and absence of the compounds of Examples 1 and 2 according to the method described in the Japanese Patent Unexamined Publication (KOKAI) No.(Sho)61-76440/1986. The degrees of the differentiation into granulocytic cell were determined by observing nuclear morphologies and measuring abilities to reduce nitroblue tetrazolium (NBT). This method is well known in the art as a test that enables accurate evaluation of the cell differentiation inducing activity of retinoids. The results are shown in the Table 2 set out below (in the table, NTB positive ratio represents a percent value of differentiated cells based on living cells).
Effect of the compound of Example 10 (HX801) on the cell differentiation inducing activity by a retinoid was examined. Am80 was used as the retinoid compound and the cell differentiation inducing activity of the above retinoid on promyelocytic leukemia cell strain HL-60 was determined in the presence or absence of the compound of HX801 in the same manner as Example 15. The results are shown in the Table 3 set out below (in the table, the symbol “-” indicates no addition).

Consider `CN1c2cc3c(cc2N=C(c2ccc(C(=O)O)cc2)c2ccccc21)C(C)(C)CCC3(C)C` [LE135, 4-(5H-7,8,9,10-tetrahydro-5,7,7,10,10-pentamethylbenzo[e]naphto[2,3-b][1,4]diazepin-13-yl)benzoic acid, reference compound], for which the NBT positive ratio by setting is: (Am80 1.0 × 10^−8 M + test compound 1.0 × 10^−6 M (LE135 series)) 34%; (Am80 1.0 × 10^−8 M + test compound 1.1 × 10^−7 M) 62%; (Am80 1.0 × 10^−8 M + test compound 3.3 × 10^−7 M) 51%; (Am80 1.1 × 10^−9 M + test compound 1.0 × 10^−6 M (LE135 series)) 2%; (Am80 1.1 × 10^−9 M + test compound 1.1 × 10^−7 M) 23%; (Am80 1.1 × 10^−9 M + test compound 3.3 × 10^−7 M) 5%. For the same molecule, the NBT positive ratio stood at 14% (Am80 3.3 × 10^−9 M + test compound 1.0 × 10^−6 M (LE135 series)); 54% (Am80 3.3 × 10^−9 M + test compound 1.1 × 10^−7 M); 32% (Am80 3.3 × 10^−9 M + test compound 3.3 × 10^−7 M); 1.3% (Am80 3.7 × 10^−10 M + test compound 1.0 × 10^−6 M (LE135 series)); 3% (Am80 3.7 × 10^−10 M + test compound 1.1 × 10^−7 M); 1.2% (Am80 3.7 × 10^−10 M + test compound 3.3 × 10^−7 M). The “cell differentiation inducing activity of Am80” value (compound coexisting with Am80) is given as “significantly suppressed”.

Consider `CC1=C(/C=C/C(C)=C/C=C/C(C)=C/C(=O)O)C(C)(C)CCC1` [Retinoic acid, retinoic acid, reference compound], for which the NBT positive ratio runs as follows: (Retinoic acid 1.0 × 10^−8 M alone, test compound absent) 54%; (Retinoic acid 1.1 × 10^−9 M alone, test compound absent) 14%; (Retinoic acid 3.3 × 10^−9 M alone, test compound absent) 36%.

On to `CN1C(=O)CN=C(c2ccc(C(=O)O)cc2)c2cc3c(cc21)C(C)(C)CCC3(C)C` [HX801, 4-[1,3-dihydro-7,8-(2,5-dimethyl-2,5-hexano)-1-methyl-2-oxo-2H-1,4-benzodiazepine-5-yl]benzoic acid], for which the “NBT positive ratio” value was determined as 77% (Table 3: Am80 1.0 × 10^−9 M + HX801 1.0 × 10^−6 M); 63% (Table 3: Am80 1.0 × 10^−9 M + HX801 1.1 × 10^−7 M); 76% (Table 3: Am80 1.0 × 10^−9 M + HX801 3.3 × 10^−7 M); 48% (Table 3: Am80 1.1 × 10^−10 M + HX801 1.0 × 10^−6 M); 22% (Table 3: Am80 1.1 × 10^−10 M + HX801 1.1 × 10^−7 M); 28% (Table 3: Am80 1.1 × 10^−10 M + HX801 3.3 × 10^−7 M). The “NBT positive ratio” value reads like this: (Table 3: Am80 1.2 × 10^−11 M + HX801 1.0 × 10^−6 M) 2%; (Table 3: Am80 1.2 × 10^−11 M + HX801 1.1 × 10^−7 M) 1.4%; (Table 3: Am80 1.2 × 10^−11 M + HX801 3.3 × 10^−7 M) 2%; (Table 3: Am80 3.3 × 10^−10 M + HX801 1.0 × 10^−6 M) 71%; (Table 3: Am80 3.3 × 10^−10 M + HX801 1.1 × 10^−7 M) 49%; (Table 3: Am80 3.3 × 10^−10 M + HX801 3.3 × 10^−7 M) 55%. Also, the “NBT positive ratio” value is, setting by setting: (Table 3: Am80 3.7 × 10^−11 M + HX801 1.0 × 10^−6 M) 4.4%; (Table 3: Am80 3.7 × 10^−11 M + HX801 1.1 × 10^−7 M) 4%; (Table 3: Am80 3.7 × 10^−11 M + HX801 3.3 × 10^−7 M) 2.3%; (Table 3: HX801 1.0 × 10^−6 M alone, no Am80) 1.1%; (Table 3: HX801 1.1 × 10^−7 M alone, no Am80) 1.1%; (Table 3: HX801 3.3 × 10^−7 M alone, no Am80) 0.3%.

With `CC1(C)CCC(C)(C)c2cc3c(cc21)Cc1ccccc1N=C3c1ccc(C(=O)O)cc1` [HX640, 4-[2,3-(2,5-dimethyl-2,5-hexano)-dibenzo[b,e]azepine-11-yl]benzoic acid], the NBT positive ratio runs as follows: (Am80 1.1 × 10^−10 M + test compound 1.0 × 10^−7 M) 69%; (Am80 1.1 × 10^−10 M + test compound 1.0 × 10^−8 M) 24%; (Am80 1.1 × 10^−10 M + test compound 1.0 × 10^−9 M) 5%; (Am80 1.1 × 10^−10 M + test compound 1.0 × 10^−10 M) 7%; (Am80 3.3 × 10^−10 M + test compound 1.0 × 10^−6 M) 85%; (Am80 3.3 × 10^−10 M + test compound 1.0 × 10^−7 M) 89%. Also, the NBT positive ratio by setting is: (Am80 3.3 × 10^−10 M + test compound 1.0 × 10^−8 M) 75%; (Am80 3.3 × 10^−10 M + test compound 1.0 × 10^−9 M) 46%; (Am80 3.3 × 10^−10 M + test compound 1.0 × 10^−10 M) 44%.

For the molecule `CN1c2ccccc2N=C(c2ccc(C(=O)O)cc2)c2cc3c(cc21)C(C)(C)CCC3(C)C` [HX600, 4-[5H-2,3-(2,5-dimethyl-2,5-hexano)-5-methyldibenzo-[b,e][1,4]diazepine-11-yl]benzoic acid], the NBT positive ratio reads like this: (Am80 1.0 × 10^−8 M + test compound 1.0 × 10^−6 M (HX600 series)) 95%; (Am80 1.0 × 10^−8 M + test compound 1.0 × 10^−7 M) 91%; (Am80 1.0 × 10^−8 M + test compound 1.0 × 10^−8 M) 80%; (Am80 1.0 × 10^−8 M + test compound 1.0 × 10^−9 M) 69%; (Am80 1.1 × 10^−9 M + test compound 1.0 × 10^−6 M (HX600 series)) 93%; (Am80 1.1 × 10^−9 M + test compound 1.0 × 10^−7 M) 90%. Further, the NBT positive ratio by setting is: (Am80 1.1 × 10^−9 M + test compound 1.0 × 10^−8 M) 65%; (Am80 1.1 × 10^−9 M + test compound 1.0 × 10^−9 M) 48%; (Am80 3.3 × 10^−9 M + test compound 1.0 × 10^−6 M (HX600 series)) 93%; (Am80 3.3 × 10^−9 M + test compound 1.0 × 10^−7 M) 93%; (Am80 3.3 × 10^−9 M + test compound 1.0 × 10^−8 M) 73%; (Am80 3.3 × 10^−9 M + test compound 1.0 × 10^−9 M) 64%. The NBT positive ratio is, setting by setting: (Am80 3.7 × 10^−10 M + test compound 1.0 × 10^−6 M (HX600 series)) 67%; (Am80 3.7 × 10^−10 M + test compound 1.0 × 10^−7 M) 72%; (Am80 3.7 × 10^−10 M + test compound 1.0 × 10^−8 M) 41%; (Am80 3.7 × 10^−10 M + test compound 1.0 × 10^−9 M) 21%; (Retinoic acid 1.0 × 10^−8 M + test compound 1.0 × 10^−6 M) 91%; (Retinoic acid 1.0 × 10^−8 M + test compound 1.1 × 10^−7 M) 91%. The NBT positive ratio by setting is: (Retinoic acid 1.0 × 10^−8 M + test compound 3.3 × 10^−7 M) 91%; (Retinoic acid 1.1 × 10^−9 M + test compound 1.0 × 10^−6 M) 69%; (Retinoic acid 1.1 × 10^−9 M + test compound 1.1 × 10^−7 M) 68%; (Retinoic acid 1.1 × 10^−9 M + test compound 3.3 × 10^−7 M) 76%; (Retinoic acid 3.3 × 10^−9 M + test compound 1.0 × 10^−6 M) 90%; (Retinoic acid 3.3 × 10^−9 M + test compound 1.1 × 10^−7 M) 86%. Also, under “Retinoic acid 3.3 × 10^−9 M + test compound 3.3 × 10^−7 M”, the NBT positive ratio is reported as 90%.
